This is an account of results in patent publication US20180305669A1, “MICROTISSUE FORMATION USING STEM CELL-DERIVED HUMAN HEPATOCYTES” (FUJIFILM Cellular Dynamics, Inc., priority 2015, published 2018).

Each structure is given as a SMILES string.

The subject of one series is CYP1A2. The experiment in a line: P450-GLO CYP1A2 assay, drug-induced CYP activity in 3-D microtissue of iCell Hepatocytes. The conditions noted are these: day 6 spheroids, 20% GELTREX, about 0.1 to 100 μM for about 24 hours.

For the compound `COc1ccc2[nH]c([S+]([O-])Cc3ncc(C)c(OC)c3C)nc2c1` (stereo not drawn) [Omeprazole], in the series with CYP1A2, the “induction of CYP1A2 activity” value is given as “about 2.5 fold”.

As for `O=C(O)Cc1ccccc1Nc1c(Cl)cccc1Cl` [Diclofenac], the hepatotoxicity response result in the series with iCell Hepatocytes is given as “Increased sensitivity”.

On to `Cc1ccc(C(=O)c2cc(O)c(O)c([N+](=O)[O-])c2)cc1` [Tolcapone], for which the hepatotoxicity response result with iCell Hepatocytes is “Increased sensitivity”.
